Results taken from patent publication US9296734B2 (AMGEN INC., priority 2013, dated 2016).
Where two headings read alike, the source gives them in different places.

Target: Cathepsin D (Cat D) (Homo sapiens (Human), UniProt P07339)
Experiment: In vitro enzymatic Cathepsin D (Cat D) FRET assay
Type: biochemical
Conditions: read-out: CatD IC50
Experimental: In Vitro Enzymatic Cathepsin D (Cat D) FRET (Fluorescence Resonance Energy Transfer) Assay
Recombinant Cat D was expressed in CHO cells. The assay buffer for CathepsinD is 0.05 M citrate pH 3.5, 10% DMSO final, 5 mM CHAPS. […] The assays are effectively started by the addition of different FRET substrates (20 nM for Cat D) and the combination is incubated for one hour. The FRET assay is terminated with by addition of Tris buffer, which raises the pH to neutrality, and the fluorescence is determined. The FRET substrate is a peptide with commercially available fluorophore and quencher, on opposite sides of the BACE cleavage site. […] Proteolytic cleavage of the FRET substrate releases quenching of fluorescence (Cat D excitation 500 nm and emission 580 nm).
In addition, the cathepsin D and cathepsin E assays are described in PCT publication WO2011069934.

[1] = average IC50, cathepsin D enzyme assay

Sequence of Cathepsin D (Cat D) (P07339 65-412, species assumed): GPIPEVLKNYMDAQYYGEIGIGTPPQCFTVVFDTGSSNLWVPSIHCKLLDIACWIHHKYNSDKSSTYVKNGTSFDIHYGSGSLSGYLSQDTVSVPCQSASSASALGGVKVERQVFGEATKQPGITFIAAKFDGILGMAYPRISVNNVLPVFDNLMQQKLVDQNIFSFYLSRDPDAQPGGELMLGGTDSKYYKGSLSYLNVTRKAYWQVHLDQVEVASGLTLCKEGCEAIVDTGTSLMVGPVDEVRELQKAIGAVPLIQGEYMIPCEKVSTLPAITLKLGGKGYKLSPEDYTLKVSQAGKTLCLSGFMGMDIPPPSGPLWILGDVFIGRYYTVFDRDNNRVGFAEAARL

Compound | IC50 [1] | IC50 (average IC50) | further results
COc1cnc(C(=O)Nc2ccc(F)c([C@]3(C)C[C@@H](C(F)(F)F)OC(N)=N3)n2)c(Cl)c1 [Example 80, N-(6-((4S,6S)-2-amino-4-methyl-6-(trifluoromethyl)-5,6-dihydro-4H-1,3-oxazin-4-yl)-5-fluoropyridin-2-yl)-3-chloro-5-methoxypicolinamide] | 658 µM | – | –
C[C@@]1(c2nc(NC(=O)c3ncc(C(F)(F)F)cc3Cl)ccc2F)C[C@@H](C(F)(F)F)OC(N)=N1 [Example 81, N-(6-((4S,6S)-2-amino-4-methyl-6-(trifluoromethyl)-5,6-dihydro-4H-1,3-oxazin-4-yl)-5-fluoropyridin-2-yl)-3-chloro-5-(trifluoromethyl)-picolinamide] | – | > 400 µM | –
C[C@@]1(c2nc(NC(=O)c3ncc(C#N)cc3Cl)ccc2F)C[C@@H](C(F)(F)F)OC(N)=N1 [Example 82, N-(6-((4S,6S)-2-amino-4-methyl-6-(trifluoromethyl)-5,6-dihydro-4H-1,3-oxazin-4-yl)-5-fluoropyridin-2-yl)-3-chloro-5-cyanopicolinamide] | – | > 400 µM | –
Cc1cc(C#N)cnc1C(=O)Nc1ccc(F)c([C@]2(C)C[C@@H](C(F)(F)F)OC(N)=N2)n1 [Example 84, N-(6-((4S,6S)-2-amino-4-methyl-6-(trifluoromethyl)-5,6-dihydro-4H-1,3-oxazin-4-yl)-5-fluoropyridin-2-yl)-5-cyano-3-methylpicolinamide] | – | 900 µM | –
C[C@@]1(c2nc(NC(=O)c3ncc(Br)cc3Cl)ccc2F)C[C@@H](C(F)(F)F)OC(N)=N1 [Example 86, N-(6-((4S,6S)-2-amino-4-methyl-6-(trifluoromethyl)-5,6-dihydro-4H-1,3-oxazin-4-yl)-5-fluoropyridin-2-yl)-5-bromo-3-chloropicolinamide] | – | 636 µM | –
C[C@@]1(c2nc(Nc3ncc(F)c4cc(C#N)cnc34)ccc2F)C[C@@H](C(F)(F)F)OC(N)=N1 [Example 89, 8-((6-((4S,6S)-2-amino-4-methyl-6-(trifluoromethyl)-5,6-dihydro-4H-1,3-oxazin-4-yl)-5-fluoropyridin-2-yl)amino)-5-fluoro-1,7-naphthyridine-3-carbonitrile] | – | 229 µM | –
NC1=N[C@](CF)(c2cc(NC(=S)c3ccc(Cl)cn3)ccc2F)C[C@@H](C(F)(F)F)O1 [Example 91, N-(3-((4S,6S)-2-amino-4-(fluoromethyl)-6-(trifluoromethyl)-5,6-dihydro-4H-1,3-oxazin-4-yl)-4-fluorophenyl)-5-chloropyridine-2-carbothioamide] | – | – | IC50 (average): 805 µM
NC1=N[C@](CF)(c2cc(Oc3ncccc3F)ccc2F)C[C@@H](C(F)(F)F)O1 [Example 94] | – | 2220 µM | –
CNC(=O)c1ccnc(Oc2ccc(F)c([C@]3(CF)C[C@@H](C(F)(F)F)OC(N)=N3)c2)c1 [Example 96, 2-(3-((4S,6S)-2-amino-4-(fluoromethyl)-6-(trifluoromethyl)-5,6-dihydro-4H-1,3-oxazin-4-yl)-4-fluorophenoxy)-N-methylisonicotinamide] | – | > 400 µM | –
NC1=N[C@](CF)(c2cc(Oc3ncccc3Cl)ccc2F)C[C@@H](C(F)(F)F)O1 [Example 97, (4S,6S)-4-(5-((3-chloropyridin-2-yl)oxy)-2-fluorophenyl)-4-(fluoromethyl)-6-(trifluoromethyl)-5,6-dihydro-4H-1,3-oxazin-2-amine] | – | 1010 µM | –
NC1=N[C@](CF)(c2cc(Oc3cc(C(F)(F)F)ccn3)ccc2F)C[C@@H](C(F)(F)F)O1 [Example 99, (4S,6S)-4-(2-Fluoro-5-((4-(trifluoromethyl)pyridin-2-yl)oxy)phenyl)-4-(fluoromethyl)-6-(trifluoromethyl)-5,6-dihydro-4H-1,3-oxazin-2-amine] | – | > 400 µM | –
NC1=N[C@](CF)(c2cc(Oc3ccccn3)ccc2F)C[C@@H](C(F)(F)F)O1 [Example 101, (4S,6S)-4-(2-fluoro-5-(pyridin-2-yloxy)phenyl)-4-(fluoromethyl)-6-(trifluoromethyl)-5,6-dihydro-4H-1,3-oxazin-2-amine] | > 400 µM | – | –
N#Cc1cncc(-c2ccc(F)c([C@]3(CF)C[C@@H](C(F)(F)F)OC(N)=N3)c2)c1 [Example 103, 5-(3-((4S,6S)-2-amino-4-(fluoromethyl)-6-(trifluoromethyl)-5,6-dihydro-4H-1,3-oxazin-4-yl)-4-fluorophenyl)nicotinonitrile] | – | 129 µM | –
CC#Cc1cncc(-c2ccc(F)c([C@]3(CF)C[C@@H](C(F)(F)F)OC(N)=N3)c2)c1 [Example 104, (4S,6S)-4-(2-fluoro-5-(5-(prop-1-yn-1-yl)pyridin-3-yl)phenyl)-4-(fluoromethyl)-6-(trifluoromethyl)-5,6-dihydro-4H-1,3-oxazin-2-amine] | 220 µM | – | –
C#CCOC1CCN(C(=O)Nc2ccc(F)c([C@]3(C)C[C@@H](C(F)(F)F)OC(N)=N3)c2)CC1 [Example 120, N-(3-((4S,6S)-2-amino-4-methyl-6-(trifluoromethyl)-5,6-dihydro-4H-1,3-oxazin-4-yl)-4-fluorophenyl)-4-(prop-2-yn-1-yloxy)piperidine-1-carboxamide] | > 400 µM | – | –
C[C@@]1(c2cc(NC(=O)N3CCc4ccccc4C3)ccc2F)C[C@@H](C(F)(F)F)OC(N)=N1 [Example 121, N-(3-((4S,6S)-2-amino-4-methyl-6-(trifluoromethyl)-5,6-dihydro-4H-1,3-oxazin-4-yl)-4-fluorophenyl)-3,4-dihydroisoquinoline-2(1H)-carboxamide] | 3610 µM | – | –
C[C@@]1(c2cc(NC(=O)N3CCC(C(F)F)CC3)ccc2F)C[C@@H](C(F)(F)F)OC(N)=N1 [Example 122, N-(3-((4S,6S)-2-amino-4-methyl-6-(trifluoromethyl)-5,6-dihydro-4H-1,3-oxazin-4-yl)-4-fluorophenyl)-4-(difluoromethyl)piperidine-1-carboxamide] | > 14.8 µM | – | –
C[C@@]1(c2cc(NC(=O)N3CC=C(C#CC4CC4)CC3)ccc2F)C[C@@H](C(F)(F)F)OC(N)=N1 [Example 124, N-(3-((4S,6S)-2-amino-4-methyl-6-(trifluoromethyl)-5,6-dihydro-4H-1,3-oxazin-4-yl)-4-fluorophenyl)-4-(cyclopropylethynyl)-5,6-dihydropyridine-1(2H)-carboxamide] | 810 µM | – | –
NC1=N[C@](CF)(c2cc(C#Cc3ccc(OC(F)F)cn3)ccc2F)C[C@@H](C(F)(F)F)O1 [Example 127, (4S,6S)-4-(5-((5-(difluoromethoxy)pyridin-2-yl)ethynyl)-2-fluorophenyl)-4-(fluoromethyl)-6-(trifluoromethyl)-5,6-dihydro-4H-1,3-oxazin-2-amine] | – | – | IC50 (average): 605 µM
COc1ccc(C(=O)Nc2cccc([C@]3(CF)C[C@@H](C(F)(F)F)OC(N)=N3)c2)nc1 [Example 145, N-(3-((4S,6S)-2-amino-4-(fluoromethyl)-6-(trifluoromethyl)-5,6-dihydro-4H-1,3-oxazin-4-yl)phenyl)-5-methoxypicolinamide] | – | 3520 µM | –
NC1=N[C@](CF)(c2cc(NC(=O)c3ccc(Br)cn3)cc(F)c2F)C[C@@H](C(F)(F)F)O1 [Example 157, N-(3-((4S,6S)-2-amino-4-(fluoromethyl)-6-(trifluoromethyl)-5,6-dihydro-4H-1,3-oxazin-4-yl)-4,5-difluorophenyl)-5-bromopicolinamide] | > 400 µM | – | –
